Like-named read-outs stand apart in the source and are kept apart here.
How the values were obtained:
[1] = Longitudinal blood concentration / body burden in Yusho cohort 2002-2010, second-order regression of log body burden; assay type: in vivo, human (Yusho patients)
Source text: The subjects were 354 patients whose blood concentration of 2,3,4,7,8-PeCDF had been measured three or more times at annual Yusho medical checkups between 2002 and 2010, i.e., 34–42 years since exposure, and for whom the period from the first to last measurement was over 4 years. We examined two chemicals: 2,3,4,7,8-PeCDF, which is the causative chemical, and octachlorodibenzodioxin (OCDD), which is a chemical found in Yusho patients but less commonly in the general public. This research was approved by Nara Medical University Ethics Committee (No. 281–2).
For the logarithm of body burden, which was calculated from concentration and weight, we examined the second derivative by second-order regression. The body burden Cit of patient i at time t is given by:1 logCit=βi+α1t+α2t^2+γ1w1it+γ2w2it
where t is the time, with t = 0 denoting 2006 (middle of the observation period), α2 is the coefficient for a second-order derivative, α1 is the first-order derivative at time t = 0, βi is the reference value for each individual, W1it is the weight and W2it is the lipid in blood (%) of patient i at time t, and γj is the coefficient for weight and lipid in blood. Aylward et al. used an estimate of body fat as volume of distribution, but we used weight and lipid in blood.
We combined all observed concentrations into equation (2):2 y=X⋅β+T⋅α+W⋅γ+ε
where y is the vector of the logarithm of dioxins and dioxin-like compounds in blood lipid concentration, Xβ is the base concentration for each patient, Tα is the change in time, Wγ is an adjustment term according to weight and lipid in blood, and ε is an observation error. X is a matrix with the total number of measurements rows and number of patient columns. T is a matrix with the total number of measurement rows and two columns, second-order and first-order for time. W is the matrix with the total number of measurement rows and two columns, weight and lipid. Equation (3) is a matrix form:3 y=XTWβαγ+ε
By solving multiple linear regressions with the lm function in R, we could estimate first- and second-order derivatives. It was assumed that patients in the same group had same trend with regard to time. […] For the case of one patient and no second-order coefficient measurements, equation (3) equals leads to an equation for estimation of decay rate:4 ka=lnCt2−lnCt1/Δt
We estimated the first- and second-order coefficients, equivalent to the decay rate and change in decay rate, for OCDD and 2,3,4,7,8-PeCDF for each patient group shown in Table 1.

[2] = cited from earlier work
[3] = patient group 2,3,4,7,8-PeCDF concentration range 0–10 pg/g lipid
[4] = patient group concentration range 0–10 pg/g lipid
[5] = patient group concentration range 10–20 pg/g lipid
[6] = patient group concentration range 20–50 pg/g lipid
[7] = patient group concentration range 50–100 pg/g lipid
[8] = patient group concentration range >100 pg/g lipid

Compound	Second-order coefficient (equivalent to minus change in apparent elimination rate in 2006) [1, 3]	First-order coefficient (equivalent to minus apparent elimination rate) [1, 4]	First-order coefficient (equivalent to minus apparent elimination rate) [1, 5]	Second-order coefficient (equivalent to minus change in apparent elimination rate in 2006) [1, 5]	First-order coefficient (equivalent to minus apparent elimination rate) [1, 6]	Second-order coefficient (equivalent to minus change in apparent elimination rate in 2006) [1, 6]	First-order coefficient (equivalent to minus apparent elimination rate) [1, 7]	Second-order coefficient (equivalent to minus change in apparent elimination rate in 2006) [1, 7]	First-order coefficient (equivalent to minus apparent elimination rate) [1, 8]	Second-order coefficient (equivalent to minus change in apparent elimination rate in 2006) [1, 8]	apparent half-life ([2]; Yusho patients with blood 2,3,4,7,8-PeCDF ≥50 pg/g lipid, first of two groups)	change in blood levels over time ([2]; Yusho patients with blood 2,3,4,7,8-PeCDF ≥50 pg/g lipid, second of two groups)	apparent half-life ([2]; Yusho patients, group that became larger since medical checkups began)	apparent half-life ([2]; Yusho patients, group that became smaller since medical checkups began)
Clc1c(Cl)c(Cl)c2c(c1Cl)Oc1c(Cl)c(Cl)c(Cl)c(Cl)c1O2 [OCDD, octachlorodibenzodioxin]	−0.006366	−0.01433	−0.01954	−0.003289	−0.02054	−0.001897	−0.01224	−0.002991	−0.009034	−0.004341	–	–	–	–
Clc1cc2oc3c(Cl)c(Cl)c(Cl)cc3c2cc1Cl [2,3,4,7,8-PeCDF, 2,3,4,7,8-pentachlorodibenzofuran]	−0.000596	−0.004032	−0.000462	0.000464	0.001669	0.000643	−0.005452	0.002124	−0.008294	0.001436	≈ 10 years	no reduction	near infinite	around 10 years

— publication PMC5015216, “Change in decay rates of dioxin-like compounds in Yusho patients” (Environmental Health, 2016)
